Results published in patent publication US10526402B2, “Anti-TGF-beta antibody for the treatment of fanconi anemia” (Dana-Farber Cancer Institute, Inc., priority 2015, dated 2020).

Experiments:
GM6914 (FA-A) cells = test: RAD51 foci formation by immunofluorescence; type: cell-based; settings: 1 μM MMC and 10 μM inhibitors for 6h; FIG. 8E, F
Protocol: (§1) (A) Experimental scheme for inhibition of TGF-β Pathway in mice. WT or Fancd2−/− mice were treated with isotype or 1D11 antibody (10 mg/kg) for 48h, and bone marrow HSCs were sorted for gene expression profile and cell cycle analysis. […] Cell cycle analysis of HSCs from WT or Fancd2−/− mice treated with isotype or 1D11 antibody for 48h is shown. Error bars represent mean±s.e.m. (n=4 mice per group). […] Homologous recombination assay was measured in U2OS cells with DR-GFP reporter after treatment with […] RI-1 and 10 μM B02. The representative of two independent experiments is presented; error bars represent mean±s.e.m. […] GM6914 (FA-A) cells or corrected GM6914+FANCA cells were treated with 1 μM MMC and 10 μM inhibitors for 6h before immunofluorescence analysis. Representative images (E) and quantification (F) of RAD51 foci are shown. […] HSPCs from WT or Fancd2−/− mice were treated with B02 (10 μM) or RI-1 ([…]) in vitro for five days and survival was determined. […] HSPCs from WT or Fancd2−/− mice were exposed to 1D11 (10 μg/mL) and RAD51 inhibitors (10 μM) for 30 min followed by exposure to acetaldehyde for 4 hrs. The cells were then washed and cultured in presence of 1D11 and RAD51 inhibitors for 7-9 days, and hematopoietic colonies were counted.
Cells were grown on coverslip for 24 hours before treated with MMC. […]

U2OS cells = test: Homologous recombination assay with DR-GFP reporter; type: cell-based; settings: 10 μM B02, FIG. 8D
Protocol: as §1

[1] = tested on: HSPCs from WT or Fancd2−/− mice; test: Cytotoxicity of RAD51 inhibitors in HSPCs; type: cell-based, mouse; settings: B02 (10 μM) or RI-1 (1004) in vitro for five days; FIG. 8G
Protocol: as §1

Fancd2−/− stromal cells = test: Survival of stromal cells in the presence of MMC; type: cell-based, mouse; settings: FIG. 1A
Protocol: (§2) For survival assays, cells were seeded at a density of 1×10^3 cells per well in 96-well plates. After 72 hours of culture in indicated concentrations of MMC or post exposure of acetaldehyde, viability was assessed using CellTiterGlo reagent (Promega). In order to assess clonogenicity, cells were seeded at a low density (500-1000 cells per well) in 6-well plates and allowed to form colonies. The cells were then fixed in methanol/20% acetic acid and stained with 1% crystal violet. Colony formation was assessed by solubilizing crystal violet stain with methanol and quantifying UV absorbance for each condition.
as §2, with “3-6 days” for “72 hours”, “Colonies were counted after” for “Colony formation was assessed by solubilizing”, “staining.” for “stain with methanol and quantifying UV absorbance for each condition.”

[2] = tested on: Lin− cells from WT and Fancd2−/− mice; test: Lin− cell growth under mTGFβ; type: cell-based, mouse; settings: mTGFβ 1 ng/mL; FIG. 2B
Protocol: For mouse hematopoietic stem/progenitor cell culture, Lin^− cells were cultured in vitro in StemSpan SFEM media with 10 ng/mL SCF, 20 ng/mL IGF-2, 20 ng/mL TPO, 10 ng/mL heparin, and 10 ng/mL a-FGF. Half media was changed every three days. For human cord blood cells, CD34+ cells were isolated using CD34 microbead kit (Miltenyi Biotec). Cells were cultured in StemSpan SFEM media with 100 ng/mL hSCF, 100 ng/mL FLT3 ligand, 10 ng/mL TPO, 10 ng/mL IL-6. Cells were treated with 10 ug/mL 1D11 or 10 μM SD208.
To perform flow cytometry analysis, Lin^− cells were collected at day 2 and 5 post transduction and suspended in staining medium (PBS with 2% heat-inactivated calf serum), and incubated with PE-conjugated c-Kit and APC-conjugated Sca-1 antibodies were added to the cells for 30 min at 4° C. in the dark. Stem cell population (GFP^+Lin^−c-Kit^+Sca-1^+) was analyzed by FACS. All these antibodies were purchased from eBioscience.

TGFβ pathway = test: Immunoblot of p-Smad2 in stromal cells; type: cell-based, mouse; settings: FIG. 1A bottom panel

SMILES | RAD51 foci formation (GM6914 (FA-A) cells) | HR efficiency (DR-GFP recombination) (U2OS cells) | cytotoxicity in HSPCs (survival) [1] | MMC sensitivity / resistance (survival) of Fancd2−/− stromal cells (Fancd2−/− stromal cells) | suppressive effect of exogenous mTGFβ on Lin− cell growth [2] | activation of the TGFβ pathway (p-Smad2) in murine stromal cells (TGFβ pathway)
O=c1c2ccccc2nc(/C=C/c2cccnc2)n1Cc1ccccc1 [B02] | efficiently block RAD51 foci formation | significantly decrease HR efficiency | do not show cytotoxicity |  |  | 
O=C1C(Cl)=C(N2CCOCC2)C(=O)N1c1ccc(Cl)c(Cl)c1 [RI-1] | efficiently block RAD51 foci formation | significantly decrease HR efficiency | do not show cytotoxicity |  |  | 
Fc1ccc(Cl)cc1-c1nc(Nc2ccncc2)c2nccnc2n1 [SD208] |  |  |  | restores MMC resistance | rescued the inhibitory effect | inhibition of TGFβ signaling
